In article PMC10537105, “Derivatives Incorporating Acridine, Pyrrole, and Thiazolidine Rings as Promising Antitumor Agents” (Molecules, 2023):

Legend:
HeLa = assay: MTT assay, HeLa cells; type: cell-based, human; details: Homo sapiens, HeLa, 72 h of incubation, read-out: IC50 values ± SD, HeLa
Description: (§1) The impact of acridine spiro derivatives 6–10 (Figure 13) on the metabolic activity of various tumor cell lines HCT-116 (human colorectal carcinoma), Jurkat (human leukemia cells), HeLa (human cervical adenocarcinoma), MDA-MB-231, and MCF-7 (human breast adenocarcinoma), and normal cell lines COS-7 (monkey kidney cells) and BJ-5ta (skin fibroblasts) was investigated using the MTT assay. This assay measures the conversion of yellow 3-(4,5-dimethylthiazol-2-yl)-2,5-diphenyltetrazolium bromide (MTT) to insoluble purple formazan by metabolically active cells. The antiproliferative activities of the tested compounds were determined based on the results from the MTT assay, and the inhibitory concentration values (IC50) are presented in Table 5.
(§2) The human cancer cell lines employed in this study were sourced from reputable institutions, including the American Type Culture Collection (ATCC; Manassas, VA, USA) and the European Collection of Authenticated Cell Cultures (ECACC, Salisbury, UK). Specifically, HeLa (93021013, human cervical adenocarcinoma), HCT116 (CCL-247TM, human colorectal carcinoma), and Jurkat (88042803, human leukemic T-cell lymphoma) were cultured in RPMI 1640 medium (Biosera, Kansas City, MO, USA). In contrast, MCF-7 (HTB-22TM, human breast adenocarcinoma, ER+), MDA-MB-231 (HTB-26TM, human breast adenocarcinoma, ER−), and COS-7 (CRL-1651TM, kidney fibroblasts) were nurtured in high-glucose Dulbecco’s Modified Eagle Medium (DMEM) supplemented with sodium pyruvate (Biosera). Furthermore, BJ-5ta (CRL-4001TM, human dermal fibroblasts) was cultured in a composite medium of high-glucose DMEM and M199 (4:1) (Biosera), supplemented with Hygromycin B (0.01 mg/mL; Merck, Darmstadt, Germany). All culture media were enriched with a 10% fetal bovine serum (FBS; Gibco, Thermo Scientific, Rockford, IL, USA) and an antibiotic/antimycotic solution (Merck) to ensure optimal growth conditions. The cells were meticulously maintained within a humidified environment containing 5% CO2 at 37 °C. Regular screenings for mycoplasma contamination were conducted using Hoechst 33342 staining (Merck), confirming the integrity of the cell lines.
(§3) To assess the antiproliferative impact of the synthesized compounds 6–10, their half-maximal inhibitory concentration (IC50) and the MTT colorimetric assay were employed. MDA-MB-231 and MCF-7 cells were seeded into 96-well microplates (SARSTEDT, Nümbrecht, Germany) at a density of 5 × 10^3 cells per well. After 24 h of cell seeding, various concentrations (100, 50, and 10 µmol/L) of acridine derivatives 6–10 were introduced, alongside cisplatin (utilized as a reference) at concentrations of 5, 10, 20, 50, and 100 µmol/L. Subsequent to 24, 48, and 72 h of treatment, the cells in each well underwent incubation with MTT (5 mg/mL, Sigma-Aldrich Chemie, Steinheim, Germany) for 4 h at 37 °C in the dark. During this period, mitochondrial oxidoreductases metabolized MTT, forming insoluble formazan. Following this, 100 µL of SDS (10% […]) was added to dissolve the formazan crystals, and the cells were incubated for an additional 12 h. Absorbance at 540 nm was measured using the automated Cytation™ 3 Cell Imaging Multi-Mode Reader (Biotek, Winooski, VT, USA). Each test was performed in triplicate, and three independent experiments were conducted to ensure precision and reliability.

COS-7 = assay: MTT assay, COS-7 normal cells; type: cell-based, monkey; details: Primates, COS-7, 72 h of incubation, normal cell line, read-out: IC50 values ± SD, COS-7
Description: as §1, §2, §3

MDA-MB-231 = assay: MTT assay, MDA-MB-231 cells; type: cell-based, human; details: Homo sapiens, MDA-MB-231, 72 h of incubation, read-out: IC50 values ± SD, MDA-MB-231
Description: as §1, §2, §3

MCF-7 = assay: MTT assay, MCF-7 cells; type: cell-based, human; details: Homo sapiens, MCF7, 72 h of incubation, read-out: IC50 values ± SD, MCF-7
Description: as §1, §2, §3

HCT-116 = assay: MTT assay, HCT-116 cells; type: cell-based, human; details: Homo sapiens, HCT-116; MTT, 72 h of incubation; read-out: IC50 values ± SD, HCT-116
Description: as §1, §2, §3

BJ-5ta = assay: MTT assay, BJ-5ta normal fibroblasts; type: cell-based, human; details: Homo sapiens, Fibroblast, 72 h of incubation, normal cell line, read-out: IC50 values ± SD, BJ-5ta
Description: as §1, §2, §3

Jurkat = assay: MTT assay, Jurkat cells; type: cell-based, human; details: Homo sapiens, Jurkat; MTT, 72 h of incubation; read-out: IC50 values ± SD, Jurkat
Description: as §1, §2, §3

| Compound | IC50 (HeLa) [µM] | IC50 (MDA-MB-231) [µM] | melting point | IC50 (MCF-7) [µM] | IC50 (HCT-116) [µM] | IC50 (Jurkat) [µM] | IC50 (COS-7) [µM] | IC50 (BJ-5ta) [µM] |
| --- | --- | --- | --- | --- | --- | --- | --- | --- |
| N#CC1=CC2(c3ccccc3Nc3ccccc32)N(NC(=S)Nc2ccccc2)C1=O [6a, 3-{4′-Cyano-5′-oxo-1′,5′-dihydro-10H-spiro[acridine-9,2′-pyrrol]-1′-yl}-1-phenylthiourea] | 67.2 ± 8.65 | > 100 | 194 to 195 °C (dec.) | > 100 | 14.3 ± 5.09 | 11.6 ± 4.3 | > 100 | 92.2 ± 1.6 |
| CCOC(=O)/C=C1\S/C(=N\N2C(=O)C(C#N)=CC23c2ccccc2Nc2ccccc23)N(c2ccc(F)cc2)C1=O [8d, Ethyl 2-[(2Z,5Z)-2-({4′-cyano-5′-oxo-1′,5′-dihydro-10H-spiro[acridine-9,2′-pyrrol]-1′-yl}imino)-3-(4-fluorophenyl)-4-oxo-1,3-thiazolidin-5-ylidene]acetate] | 5.97 ± 0.15 | 7.85 ± 0.97 | 269 to 272 °C (dec.) | 8.52 ± 0.79 | 5.46 ± 0.02 | 5.64 ± 0.09 | 9.45 ± 0.24 | 7.32 ± 0.35 |
| N#CC1=CC2(c3ccccc3Nc3ccccc32)N(NC(=S)Nc2ccc(F)cc2)C1=O [6d, 3-{4′-Cyano-5′-oxo-1′,5′-dihydro-10H-spiro[acridine-9,2′-pyrrol]-1′-yl}-1-(4-fluorophenyl)thiourea] | > 100 | > 100 | 197 to 199 °C (dec.) | > 100 | 18.9 ± 4.71 | 31.8 ± 5.65 | > 100 | > 100 |
| COc1ccc(N2C(=O)CS/C2=N\N2C(=O)C(C#N)=CC23c2ccccc2Nc2ccccc23)cc1 [7b, 1′-{[(2Z)-3-(4-Methoxyphenyl)-4-oxo-1,3-thiazolidin-2-ylidene]amino}-5′-oxo-1′,5′-dihydro-10H-spiro[acridine-9,2′-pyrrole]-4′-carbonitrile] | > 100 | > 100 | 207 to 210 °C (dec.) | 30.8 ± 5.22 | > 100 | > 100 | > 100 | > 100 |

More lines, main results first:

| IC50 (HeLa) [µM] | IC50 (MDA-MB-231) [µM] | melting point | IC50 (MCF-7) [µM] | IC50 (HCT-116) [µM] | IC50 (Jurkat) [µM] | Compound | IC50 (COS-7) [µM] | IC50 (BJ-5ta) [µM] |
| --- | --- | --- | --- | --- | --- | --- | --- | --- |
| > 100 | > 100 | 229 to 231 °C (dec.) | > 100 | > 100 | > 100 | CCCC1S/C(=N\N2C(=O)C(C#N)=CC23c2ccccc2Nc2ccccc23)N(c2cccc(OC)c2)C1=O (stereo not drawn) [10c, 1′-{[(2Z)-3-(3-Methoxyphenyl)-4-oxo-5-propyl-1,3-thiazolidin-2-ylidene]amino}-5′-oxo-1′,5′-dihydro-10H-spiro[acridine-9,2′-pyrrole]-4′-carbonitrile] | > 100 | > 100 |
| > 100 | > 100 | 219 to 224 °C (dec.) | > 100 | > 100 | > 100 | COc1ccc(N2C(=O)C(C)S/C2=N\N2C(=O)C(C#N)=CC23c2ccccc2Nc2ccccc23)cc1 (stereo not drawn) [9b, 1′-{[(2Z)-3-(4-Methoxyphenyl)-5-methyl-4-oxo-1,3-thiazolidin-2-ylidene]amino}-5′-oxo-1′,5′-dihydro-10H-spiro[acridine-9,2′-pyrrole]-4′-carbonitrile] | > 100 | > 100 |
| > 100 | > 100 | 247 to 250 °C (dec.) | > 100 | > 100 | > 100 | CCCC1S/C(=N\N2C(=O)C(C#N)=CC23c2ccccc2Nc2ccccc23)N(c2ccc(OC)cc2)C1=O (stereo not drawn) [10b, 1′-{[(2Z)-3-(4-Methoxyphenyl)-4-oxo-5-propyl-1,3-thiazolidin-2-ylidene]amino}-5′-oxo-1′,5′-dihydro-10H-spiro[acridine-9,2′-pyrrole]-4′-carbonitrile] | > 100 | > 100 |
| 6.5 ± 0.43 | 8 ± 1.32 | 183 to 186 °C (dec.) | 9.48 ± 0.27 | 5.45 ± 0.01 | 5.6 ± 0.04 | CCOC(=O)/C=C1\S/C(=N\N2C(=O)C(C#N)=CC23c2ccccc2Nc2ccccc23)N(c2ccc([N+](=O)[O-])cc2)C1=O [8e, Ethyl 2-[(2Z,5Z)-2-({4′-cyano-5′-oxo-1′,5′-dihydro-10H-spiro[acridine-9,2′-pyrrol]-1′-yl}imino)-3-(4-nitrophenyl)-4-oxo-1,3-thiazolidin-5-ylidene]acetate] | 10.2 ± 0.5 | 7.07 ± 0.26 |
| 44 ± 5.88 | 40.8 ± 0.84 | 237 to 240 °C (dec.) | 65.3 ± 1.89 | 32.7 ± 1.51 | 25.8 ± 2.58 | COc1cccc(N2C(=O)C(C)S/C2=N\N2C(=O)C(C#N)=CC23c2ccccc2Nc2ccccc23)c1 (stereo not drawn) [9c, 1′-{[(2Z)-3-(3-Methoxyphenyl)-5-methyl-4-oxo-1,3-thiazolidin-2-ylidene]amino}-5′-oxo-1′,5′-dihydro-10H-spiro[acridine-9,2′-pyrrole]-4′-carbonitrile] | > 100 | 32.7 ± 0.47 |
